The target in one assay is β-lactamase. The assay can be described thus: β-Lactamase enzyme inhibitory activity assay. In kind it is biochemical. The following applies: β-lactamase inhibition assay. The protocol: . The percent inhibitory curves for the candidate natural compounds with efficacy for NDM-1 and β-lactamase enzyme are given in Figures 5(a) and 5(b). The natural compounds were incubated with NDM-1 enzyme, and the substrate, nitrocefin, and hydrolysis of the substrate were monitored at 490 nm OD.
The eight candidate natural compounds identified by in silico analysis against NDM-1 were also tested for β-lactamase inhibition assay. […]

The subject of assay [1] is PAN resistance A. baumannii clinical isolate (strain number: P-29). The assay can be described thus: Checkerboard synergy titration assay with imipenem (FIC). The following applies: compound 128 mg/L with imipenem; carbapenem-resistant A. baumannii clinical strain. The class given is cell-based. Here is the method:
The combined effect of the natural compounds and imipenem (Zhejiang Hisun Pharmaceutical, China) was done using the checkerboard synergy titration assay in a 96-well microtitre plate. Imipenem was tested at concentrations of […] than their MIC and two dilutions higher than the MIC. MIC concentration of imipenem (4x) was added in all wells under column 1 of the 96-well checkerboard panel for each concentration of natural compounds (one each row). The compounds were serially diluted at different subinhibitory concentrations, and each concentration was added to the corresponding rows.
A FIC = 0.5 for a compound was taken as synergistic, FIC > 0.5 − 4 was additive/indifferent, and FIC > 4 was taken as antagonistic.
The checkerboard method was used to design the dilution panel, with twofold concentrations above the MIC of the antibiotics and MIC concentration and fivefold below the MIC.

The target of a further assay is T1, Recombinant NDM-1 enzyme (Klebsiella pneumoniae, UniProt C7C422).
T1 construct: purchased RayBiotech Life 230-00554-500
T1 sequence (C7C422 29-270 limits assumed): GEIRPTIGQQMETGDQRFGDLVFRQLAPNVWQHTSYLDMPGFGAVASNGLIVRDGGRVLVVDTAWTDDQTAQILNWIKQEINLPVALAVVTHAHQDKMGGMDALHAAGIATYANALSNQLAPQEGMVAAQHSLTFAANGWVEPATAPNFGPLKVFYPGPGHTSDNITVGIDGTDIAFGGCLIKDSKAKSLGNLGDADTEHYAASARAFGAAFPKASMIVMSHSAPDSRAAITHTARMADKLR
As to the kind of experiment: biochemical. Here is the method: The NDM-1 enzyme inhibition assay was carried out spectrophotometrically using nitrocefin as a chromogenic substrate as described previously [27].
The natural compounds were incubated with NDM-1 enzyme, and the substrate, nitrocefin, and hydrolysis of the substrate were monitored at 490 nm OD.

The mark [2] stands for this setting: 1 nM NDM-1, 10 μM ZnSO4, nitrocefin 60 μM, 490 nm, 30°C, compounds 10-100 μM, read-out: IC50 NDM-1 enzyme activity.

Like-named read-outs stand apart in the source and are kept apart here.

For orientation: IC50 means the concentration at which inhibition is half-maximal. `O=c1c2cc(O)c(O)cc2oc2cc(O)c([C@@H]3O[C@H](CO)[C@@H](O)[C@H](O)[C@H]3O)c(O)c12` [Mangiferin]: the 50% inhibitory concentration (IC50) came to 58 ± 2.08 µM on β-lactamase and 30.6 ± 4.41 µM at Recombinant NDM-1 enzyme. The FIC index in assay [1] was 0.625.

As for `COc1c(O)cc2oc3cc(O)c(CC=C(C)C)c(O)c3c(=O)c2c1CC=C(C)C` [Mangostin], the half-maximal inhibitory concentration (IC50) on β-lactamase came to 136 ± 37.1 µM; on Recombinant NDM-1 enzyme (setting [2]), 97.5 ± 5.59 µM.

With `C[C@@H]1O[C@@H](OC[C@H]2O[C@@H](Oc3c(-c4ccc(O)c(O)c4)oc4cc(O)cc(O)c4c3=O)[C@H](O)[C@@H](O)[C@@H]2O)[C@H](O)[C@H](O)[C@H]1O` [Rutin], the half-inhibitory concentration (IC50) on β-lactamase came out at 127 ± 15.9 µM; at Recombinant NDM-1 enzyme (setting [2]), 48.9 ± 3.74 µM.

`CC1=C(CO)C(=O)O[C@@H]([C@@H](C)[C@H]2CC[C@H]3[C@@H]4C[C@H]5O[C@]56[C@@H](O)C=CC(=O)[C@]6(C)[C@H]4CC[C@]23C)C1` [Withaferin A]: the half-inhibitory concentration (IC50) turned out to be 32.8 ± 2.59 µM at β-lactamase and 24 ± 2.92 µM at Recombinant NDM-1 enzyme. Also, the FIC index in assay [1] is recorded as 0.3125.

Consider `CC1(C)[C@H](C(=O)O)N2C(=O)C[C@H]2S1(=O)=O` [sulbactam, reference compound], for which, on β-lactamase, the 50% inhibitory concentration (IC50) turned out to be 7.24 ± 0.392 µM.

(Values after article PMC8966755, “In Silico and In Vitro Screening of Natural Compounds as Broad-Spectrum β-Lactamase Inhibitors against Acinetobacter baumannii New Delhi Metallo-β-lactamase-1 (NDM-1)” (BioMed Research International, 2022).)
